# Test results published in patent US20120021011A1, “ANTI-INFLAMMATORY PHARMACEUTICAL COMPOSITION COMPRISING EXTRACTS FROM BROUSSONETIA PAPYRIFERA AND LONICERA JAPONICA” (Knu-Industry Cooperation Foundation, priority 2009, published 2012).
# Assays:
# [1] = test system: CGN-induced mouse paw edema; test: λ-Carrageenan (CGN)-induced mouse paw edema; format: in vivo; conditions: for Paw volume increased: 5 h after CGN, mean ± SD
# Description: Mouse CGN-induced paw edema assay was performed to measure an anti-inflammatory activity according to a slightly modified method disclosed in Winter et al. (1962). […] If the volume was greater than that before the addition of CGN, it was deemed that edema developed. The test material was dissolved in a mixture including DMSO and water at a mixture ratio of 1:1 and then was orally administered. A volume of a negative control group which was not treated with CGN was 0.149±0.025 ml.
# [2] = test system: acetic acid-induced writhing; test: Acetic acid-induced writhing test on mice; format: in vivo, mouse; conditions: for Numbers of writhings: mean ± SD
# Description: In order to measure an antinociceptive activity, 1% acetic acid (100 μl) was intraperitoneally injected to a mouse. 10 minutes after the injection of the acetic acid, the number of writhings was counted for 10 minutes. Before the injection of the acetic acid, a test material dissolved in a mixture including DMSO and water at a ratio of 1:1 was orally administered (0.1 ml/mouse).
# Each group consisted of 6 mice. Measurement values were represented by arithmetic mean±SD (a of Table 3). b of Table 3 indicates an inhibitory activity % compared to the control group treated with the acetic acid. * indicates a significant difference of P<0.05 compared to the acetic acid-treated control group.
# [3] = test system: AA-induced mouse ear edema; test: Arachidonic acid (AA)-induced mouse ear edema; format: in vivo; conditions: 20 mg/kg oral
# Description: AA-induced mouse ear edema assay was used to identify an anti-inflammatory activity in vivo in anti-inflammatory animal model. According to a method disclosed in Kim et al. (1993), 2% AA acetone solution was applied to an ear of a mouse (20 μl/ear), and after one hour, a thickness of the ear was measured using a dial thickness gauge (Mitutoyo, Japan). One hour before the AA treatment, a test material dissolved in a mixture including DMSO and water at a mixture ratio of 1:1 was orally administered to the mouse (0.1 ml/mouse).
# 5-LOX = molecular target: T1, 5-LOX (Rattus norvegicus, UniProt P12527); test: 5-LOX-mediated cysteinyl leukotriene (LTC4/D4/E4) production in A23187-treated RBL-1 cells; format: cell-based; conditions: 1 nM, read-out: 5-LOX inhibitory activity
# T1 construct: RBL-1 cells obtained from American Type Culture Collection; endogenous in cells; host or cells: RBL-1 (rat basophilic leukemia) cells, ATCC
# T1 sequence (P12527 1-673): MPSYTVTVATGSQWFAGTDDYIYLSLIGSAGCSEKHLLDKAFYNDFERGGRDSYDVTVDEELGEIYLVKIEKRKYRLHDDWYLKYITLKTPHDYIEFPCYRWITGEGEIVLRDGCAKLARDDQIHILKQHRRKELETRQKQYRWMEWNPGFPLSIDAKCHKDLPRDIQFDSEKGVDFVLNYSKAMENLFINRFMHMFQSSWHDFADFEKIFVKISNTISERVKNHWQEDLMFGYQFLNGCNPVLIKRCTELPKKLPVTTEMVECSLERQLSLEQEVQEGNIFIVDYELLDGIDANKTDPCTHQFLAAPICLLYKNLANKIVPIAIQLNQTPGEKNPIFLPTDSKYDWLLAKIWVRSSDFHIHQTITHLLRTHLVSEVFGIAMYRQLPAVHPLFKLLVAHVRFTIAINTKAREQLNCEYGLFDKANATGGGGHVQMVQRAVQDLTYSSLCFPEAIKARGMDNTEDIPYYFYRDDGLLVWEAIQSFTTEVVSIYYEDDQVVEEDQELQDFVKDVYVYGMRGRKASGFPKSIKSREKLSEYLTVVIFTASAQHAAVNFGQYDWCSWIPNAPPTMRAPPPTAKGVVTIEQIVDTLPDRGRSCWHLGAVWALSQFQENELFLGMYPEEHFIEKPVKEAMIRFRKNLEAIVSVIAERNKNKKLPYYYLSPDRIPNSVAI
# Description: The cells were placed on 96-well plates for 2 hours, and incubated in advance with a test material for 10 minutes. The test material was dissolved in DMSO and diluted with serum-free DMEM at an appropriate concentration. The final concentration of DMSO was adjusted to be 0.1% (v/v). […] A medium used was collected and a concentration of cysteinyl leukotrienes (LTC4/D4/E4) produced by 5-LOX was measured using an ELISA kit (Cayman Chem.) according to a method recommended by the manufacturer.
# It is known that when RBL-1 cells are activated by A23187 (calcium ionophore), a great amount of cysteinyl-LTs is generated by 5-LOX.
smiles,measurement,setting,value
"C[C@]12C=CC(=O)C=C1CC[C@@H]1[C@@H]2[C@@H](O)C[C@@]2(C)[C@H]1CC[C@]2(O)C(=O)CO [Prednisolone, prednisolone]",inhibitory activity % compared to the CGN-treated control group (paw edema),[1]; 20 mg/kg oral,50.0%
same,Paw volume increased,[1]; 20 mg/kg oral,0.076 ± 0.011 mL
"CC(=O)Oc1ccccc1C(=O)O [Aspirin, aspirin]",inhibitory activity % compared to the acetic acid-treated control group (writhings),"[2]; Exp. 1, 100 mg/kg oral",60.9%
same,Numbers of writhings,"[2]; Exp. 1, 100 mg/kg oral",5.7 ± 3.8
same,inhibitory activity % compared to the acetic acid-treated control group (writhings),"[2]; Exp. 2, 100 mg/kg oral",46.1%
same,Numbers of writhings,"[2]; Exp. 2, 100 mg/kg oral",9.6 ± 3.2
"COc1ccc2c(c1)c(CC(=O)O)c(C)n2C(=O)c1ccc(Cl)cc1 [Indomethacin, indomethacin]",inhibitory activity % compared to the CGN-treated control group (paw edema),[1]; 20 mg/kg oral,23.7%
same,Paw volume increased,[1]; 20 mg/kg oral,0.116 ± 0.039 mL
same,inhibitory activity % compared to the CGN-treated control group (paw edema),[1]; 100 mg/kg oral,44.7%
same,Paw volume increased,[1]; 100 mg/kg oral,0.084 ± 0.019 mL
same,inhibitory activity % compared to the AA-treated control group (ear edema),[3],70%
same,Ear thickness increased,"[3]; 1 h after AA, mean ± SD",0.021 ± 0.013 mm
"CC(Cc1ccc(O)c(O)c1)C(C)Cc1ccc(O)c(O)c1 (stereo not shown) [NDGA, nordihydroguaiaretic acid]",inhibition at 0.001 µM,5-LOX,99%
